# Article PMC13453949 (Journal of Advanced Research, 2025)
# “Also recorded” adds a separate entry of the source. Like-named read-outs stand apart in the source and are kept apart here.
# Tests used:
# [1] = tested on: KB (human oral epidermoid carcinoma cells); settings: 24 h; for Cell survival rate: 128 μg/mL (highest tested)
# 293 T cells = settings: 24 h; for Cell survival rate: 128 μg/mL (highest tested)
# Raw264.7 cells = settings: 24 h; for Cell survival rate: 128 μg/mL (highest tested)
# C. albicans [2] = test: microbe, parasite or virus in culture; assay type: cell-based, Candida albicans; settings: for MIC: Candida albicans, read-out: Minimum inhibitory concentration (MIC); for Fungal recovery after treatment: after 36 h of treatment
# C. albicans biofilm = test: Biofilm formation, total biofilm biomass by crystal violet staining; assay type: cell-based; settings: Candida albicans, 24 h, read-out: Inhibition of early biofilm formation
# C. albicans [3] = test: Murine oral candidiasis model; assay type: in vivo, BALB/c mice; settings: for Hemoglobin (HGB) level / Platelet (PLT) counts / White blood cell count (WBC): relative to Can group
# [4] = tested on: C. albicans hyphal formation; assay type: cell-based, Candida albicans; settings: RPMI-1640 + 10 % FBS, 24 h
# C. albicans [5] = test: Checkerboard dilution, fractional inhibitory concentration index; assay type: cell-based, Candida albicans
# [6] = tested on: C. albicans mature biofilm; test: Mature biofilm, metabolic activity by XTT reduction; assay type: cell-based; settings: Candida albicans, 24 h, read-out: Inhibition rate of mature biofilms
# C. albicans [7] = assay type: cell-based, Candida albicans; settings: α-hederin 32 μg/mL; vs untreated control (CK)
# [8] = tested on: ergosterol content in C. albicans; test: Ergosterol content determination; assay type: cell-based, Candida albicans; settings: 16 μL/mL, compared to untreated control (CK)
# C. albicans [9] = test: Antifungal activity test of the 17 candidate compounds against C. albicans; assay type: cell-based, Candida albicans; settings: tested at 12 h, 24 h and 36 h
# [10] = tested on: C. albicans cell surface hydrophobicity; assay type: cell-based, Candida albicans; settings: 128 μg/mL
# [11] = threshold concentration 1024 μg/mL
compound,measurement,setting,value
"OC(Cn1cncn1)(Cn1cncn1)c1ccc(F)cc1F [Fluconazole, reference compound]",Cell survival rate,[1],above 80%
same,Cell survival rate,293 T cells,above 80%
same,Cell survival rate,Raw264.7 cells,above 80%
same,Fungal growth at highest concentration,"C. albicans [2]; 128 μg/mL, after 24 h",persistent fungal growth
same,MIC,C. albicans [2],> 128 µg/mL
same,Fungal recovery after treatment,C. albicans [2],regrowth
same,inhibition at 256 µg/mL,C. albicans biofilm,57%
same,Hemoglobin (HGB) level,C. albicans [3]; 128 μg/mL,restored
same,Platelet (PLT) counts,C. albicans [3]; 128 μg/mL,normalized
same,White blood cell count (WBC),C. albicans [3]; 128 μg/mL,restored
same,Body weight change,"C. albicans [3]; mouse, in vivo",rebound in body weight
same,Hyphal formation,[4]; 256 μg/mL,failed to achieve complete suppression
same,Concentration reducing hyphal formation,[4],> 32 µg/mL
same,Concentration in the combination showing additive effect,C. albicans [5],1 µg/mL
same,inhibition at 128 µg/mL,[6],17%
same,Internal ultrastructure (TEM),C. albicans [7],no comparable ultrastructural damage
same,Reduction of ergosterol content,[8],45%
CC(C)=CCC[C@](C)(O[C@@H]1O[C@H](CO[C@@H]2O[C@@H](CO)[C@H](O)[C@H]2O[C@@H]2OC[C@@H](O)[C@H](O)[C@H]2O)[C@@H](O)[C@H](O)[C@H]1O)[C@H]1CC[C@]2(C)[C@@H]1[C@H](O)C[C@@H]1[C@@]3(C)CC[C@H](O[C@@H]4O[C@H](CO)[C@@H](O)[C@H](O)[C@H]4O[C@@H]4O[C@H](CO)[C@@H](O)[C@H](O)[C@H]4O)C(C)(C)[C@@H]3CC[C@]12C [Ginsenoside Ra2],Anti − C. albicans activity,C. albicans [9]; [11],>1024 µg/mL
C[C@]12CCC[C@@]3(COC1=O)[C@@H]1CC[C@@H]4C[C@@]1(CC[C@@H]32)C[C@@]4(C)O [Hypodiolide A],Anti − C. albicans activity,C. albicans [9]; [11],>1024 µg/mL
C=C(C)C(O)COc1c2occc2cc2ccc(=O)oc12 (centres unmarked) [Isogosferol],Anti − C. albicans activity,C. albicans [9]; [11],>1024 µg/mL
COc1cc2ccc(=O)oc2cc1O [Scopoletol],Anti − C. albicans activity,C. albicans [9]; [11],>1024 µg/mL
Oc1ccc2ccccc2c1N=Nc1ccc(N=Nc2ccccc2)cc1 [Sudam Ⅲ],Anti − C. albicans activity,C. albicans [9]; [11],>1024 µg/mL
C[C@@H]1O[C@@H](O[C@H]2[C@H](O[C@H]3CC[C@@]4(C)[C@@H](CC[C@]5(C)[C@@H]4CC=C4[C@@H]6CC(C)(C)CC[C@]6(C(=O)O)CC[C@]45C)[C@]3(C)CO)OC[C@H](O)[C@@H]2O)[C@H](O)[C@H](O)[C@H]1O [α-Hederin],Cell survival rate,[1],above 80%
same,Cell survival rate,293 T cells,above 80%
same,Anti − C. albicans activity,C. albicans [9]; [11],below 128 μg/mL
same,Cell survival rate,Raw264.7 cells,above 80%
same,C. albicans growth,C. albicans [2]; 32 μg/mL,completely inhibited
same,MIC,C. albicans [2],32 µg/mL
same,Fungal recovery after treatment,C. albicans [2],no fungal recovery observed
same,Growth inhibition of C. albicans,C. albicans [2]; at concentrations above 8 μg/mL within 24 h,50%
same,inhibition at 32 µg/mL,C. albicans biofilm,55%
same,inhibition at 256 µg/mL,C. albicans biofilm,75%
same,Reduction of cell surface hydrophobicity (CSH),[10],85%
same,Hemoglobin (HGB) level,C. albicans [3]; 32 μg/mL,restored
same,Platelet (PLT) counts,C. albicans [3]; 32 μg/mL,normalized
same,White blood cell count (WBC),C. albicans [3]; 32 μg/mL,restored
same,C. albicans colony count on tongue,"C. albicans [3]; 128 μg/mL in drinking water, 5 days (128Hed)",no colonies were detected
same,Hemoglobin (HGB) level,C. albicans [3]; 128 μg/mL,restored
same,Platelet (PLT) counts,C. albicans [3]; 128 μg/mL,normalized
same,White blood cell count (WBC),C. albicans [3]; 128 μg/mL,restored
same,Body weight change,"C. albicans [3]; mouse, in vivo","rebound in body weight; also recorded: slowest initial weight loss, followed by a consistent increase"
same,Fungal colonization of tongue (PAS staining),"C. albicans [3]; mouse, in vivo",markedly reduced fungal colonization
same,Fungal load on tongue (colony counts),"C. albicans [3]; α-hederin-treated group, dose not stated",significant decrease in fungal load
same,Hyphal formation,[4]; 128 μg/mL,partial inhibition
same,Hyphal formation,[4]; 256 μg/mL,completely inhibit
same,Concentration in the combination showing additive effect,"C. albicans [5]; checkerboard, fluconazole plus α-hederin",16 µg/mL
same,inhibition at 128 µg/mL,[6],20%
same,Internal ultrastructure (TEM),C. albicans [7],"severe cytoplasmic content loss and vacuolization, thinning and irregularity of cell walls/membranes and membrane discontinuities"
same,Reduction of ergosterol content,[8],90%
Elemicin,Concentration with significant toxicity,[1],higher than 8 μL/mL
same,Concentration with significant toxicity,293 T cells,higher than 8 μL/mL
same,Anti − C. albicans activity,C. albicans [9],<128 μL/mL
same,Anti − C. albicans activity,C. albicans [9]; [11],below 128 μg/mL
same,Concentration with significant toxicity,Raw264.7 cells,higher than 8 μL/mL
same,Minimum inhibitory concentration (MIC),"C. albicans [2]; C. albicans CMCC(F)98001, YEPD, 37 °C, 24 h and 36 h",16 μL/mL
same,Inhibition of C. albicans growth,C. albicans [2]; at concentrations exceeding 0.5 μL/mL,50 % −70
Evodiamine,Anti − C. albicans activity,C. albicans [9]; [11],>1024 µg/mL
Strictosamide,Anti − C. albicans activity,C. albicans [9]; [11],>1024 µg/mL
Triptofordin,Anti − C. albicans activity,C. albicans [9]; [11],>1024 µg/mL
